Experimental data published in patent publication US9221814B2, “Heterocyclic guanidine F1F0-atpase inhibitors and therapeutic uses thereof” (Lycera Corporation, priority 2012, dated 2015).
Where two headings read alike, the source gives them in different places.

What was measured:
[1] = test system: Ramos cells; assay: Cytotoxicity in Ramos cells; type: cell-based; settings: detection limit EC50=16 μM, read-out: Ramos Cell EC50
Protocol: (§1) Exemplary compounds described in above Examples were tested for activity against F1F0-ATPase by measuring the ability of the compounds to inhibit ATP synthesis. In addition, the compounds were assessed for cytotoxicity in Ramos cells. Inhibition of F1F0-ATPase activity in synthesizing ATP and cytotoxicity in Ramos cells were measured according to the procedures described in K. M. Johnson et al. Chemistry & Biology 2005, 12, 485-496.

[2] = molecular target: T1, F1F0-ATPase (Bos taurus, UniProt P13621); assay: Inhibition of F1F0-ATPase activity in synthesizing ATP (ATP synthesis inhibition); type: biochemical; settings: detection limit IC50=16 μM, read-out: ATP Syn IC50
T1 construct: from tissue
Protocol: as §1

SMILES: Cc1nc(C(=O)/N=C(\Nc2cc(-c3ccc(F)cc3)n[nH]2)NC(C)(C)C)c(C)o1 [Compound A-191]
- EC50 [1]: > 16 µM
- IC50 [2]: > 16 µM

SMILES: Cc1cc(C(=O)/N=C(/NCC(C)C)Nc2cc(-c3ccc(F)cc3)n[nH]2)c(C)o1 [Compound A-192]
- EC50 [1]: 5 to 16 µM
- IC50 [2]: < 5 µM

SMILES: Cc1nc(C(=O)/N=C(/NCC(C)C)Nc2cc(-c3ccc(F)cc3)n[nH]2)c(C)o1 [Compound A-193]
- EC50 [1]: 5 to 16 µM
- IC50 [2]: 5 to 16 µM

SMILES: CCOCC(C)N/C(=N/C(=O)c1nc(C)oc1C)Nc1cc(-c2ccc(F)cc2)n[nH]1 (stereo not shown) [Compound A-194]
- EC50 [1]: < 5 µM
- IC50 [2]: > 16 µM

SMILES: Cc1cc(C(=O)/N=C(\Nc2cc(-c3ccc(F)cc3)n[nH]2)NC(C)C)c(C(F)(F)F)o1 [Compound A-195]
- EC50 [1]: 5 to 16 µM
- IC50 [2]: < 5 µM

SMILES: CCC(C)N/C(=N/C(=O)c1nc(C)oc1C)Nc1cc(-c2ccc(F)cc2)n[nH]1 (stereo not shown) [Compound A-196]
- EC50 [1]: < 5 µM
- IC50 [2]: 5 to 16 µM

SMILES: CCC(C)N/C(=N/C(=O)c1cc(C)oc1C)Nc1cc(-c2ccc(F)cc2)n[nH]1 (stereo not shown) [Compound A-197]
- EC50 [1]: 5 to 16 µM
- IC50 [2]: 5 to 16 µM

SMILES: O=C(/N=C(/NCc1ccc(F)cc1Cl)Nc1cc(C(F)(F)F)n[nH]1)c1nccs1 [Compound A-198]
- EC50 [1]: < 5 µM
- IC50 [2]: < 5 µM

SMILES: CCOCCCNC(=NC(=O)c1cc(C)oc1C(F)(F)F)Nc1cc(-c2ccc(F)cc2)n[nH]1 [Compound A-199]
- EC50 ([1]; Homo sapiens): < 5 µM
- IC50 [2]: < 5 µM

SMILES: CCOCCCN/C(=N/C(=O)c1cc(C)oc1C(F)(F)F)Nc1cc(-c2cc(F)cc(F)c2)n[nH]1 [Compound A-200]
- EC50 [1]: 5 to 16 µM
- IC50 [2]: < 5 µM

SMILES: CC(C)CN/C(=N/C(=O)c1cn(C)nc1C(F)(F)F)Nc1n[nH]c2cc(Cl)ccc12 [Compound A-201]
- EC50 [1]: > 16 µM
- IC50 [2]: < 5 µM

SMILES: COCC(C)NC(=NC(=O)c1cn(C)nc1C(F)(F)F)Nc1n[nH]c2cc(Cl)ccc12 (stereo not shown) [Compound A-202]
- EC50 [1]: < 5 µM
- IC50 [2]: < 5 µM

SMILES: Cc1cc(C(=O)/N=C(/NCC(C)C)Nc2cc(-c3ccc(F)cc3)n[nH]2)c(C(F)(F)F)o1 [Compound A-203]
- EC50 [1]: < 5 µM
- IC50 [2]: < 5 µM

SMILES: CCC(C)N/C(=N/C(=O)c1cc(C)oc1C(F)(F)F)Nc1cc(-c2ccc(F)cc2)n[nH]1 (stereo not shown) [Compound A-204]
- EC50 [1]: < 5 µM
- IC50 [2]: < 5 µM

SMILES: CC(C)CN/C(=N/C(=O)c1cn(C)nc1C(F)(F)F)Nc1n[nH]c2cc(F)ccc12 [Compound A-205]
- EC50 [1]: > 16 µM
- IC50 [2]: > 16 µM

SMILES: Cn1cc(C(=O)/N=C(\Nc2n[nH]c3cc(F)ccc23)NC(C)(C)C)c(C(F)(F)F)n1 [Compound A-206]
- EC50 [1]: < 5 µM
- IC50 [2]: 5 to 16 µM

SMILES: COCC(C)NC(=NC(=O)c1cn(C)nc1C(F)(F)F)Nc1n[nH]c2cc(F)ccc12 (stereo not shown) [Compound A-207]
- EC50 [1]: > 16 µM
- IC50 [2]: > 16 µM

SMILES: CC(C)(C)CN/C(=N/C(=O)c1ccc(Cl)s1)Nc1cc(C(F)(F)F)n[nH]1 [Compound A-208]
- EC50 [1]: < 5 µM
- IC50 [2]: < 5 µM

SMILES: O=C(/N=C(\Nc1cc(C(F)(F)F)n[nH]1)NC1CCOCC1)c1ccc(Cl)s1 [Compound A-209]
- EC50 [1]: < 5 µM
- IC50 [2]: < 5 µM

SMILES: O=C(/N=C(/Nc1cc(F)cc(Cl)c1)Nc1cc(C(F)(F)F)n[nH]1)c1ccc(Cl)s1 [Compound A-210]
- EC50 [1]: < 5 µM
- IC50 [2]: < 5 µM

SMILES: CC(C)(C)N/C(=N/C(=O)c1ccc(Cl)s1)Nc1cc(C(F)(F)F)n[nH]1 [Compound A-211]
- EC50 [1]: < 5 µM
- IC50 [2]: < 5 µM

SMILES: CCOC(=O)NC1CCC(N/C(=N\C(=O)c2cc(C)oc2C(F)(F)F)Nc2cc(OC)ccc2C)CC1 (stereo not shown) [Compound A-212]
- EC50 ([1]; Homo sapiens): 5 to 16 µM
- IC50 [2]: < 5 µM

SMILES: CCOC(=O)NC1CCC(N/C(=N\C(=O)c2cc(C)oc2C(F)(F)F)Nc2ccccc2OC)CC1 (stereo not shown) [Compound A-213]
- EC50 ([1]; Homo sapiens): > 16 µM
- IC50 [2]: < 5 µM

SMILES: CCOC(=O)NC1CCC(N/C(=N\C(=O)c2cc(C)oc2C(F)(F)F)Nc2ccccc2C(F)(F)F)CC1 (stereo not shown) [Compound A-214]
- EC50 ([1]; Homo sapiens): > 16 µM
- IC50 [2]: < 5 µM

SMILES: CCOC(=O)NC1CCC(N/C(=N\C(=O)c2cc(C)oc2C(F)(F)F)Nc2cc(Cl)ccc2OC)CC1 (stereo not shown) [Compound A-215]
- EC50 ([1]; Homo sapiens): 5 to 16 µM
- IC50 [2]: < 5 µM

SMILES: CCOC(=O)NC1CCC(N/C(=N\C(=O)c2cc(C)oc2C(F)(F)F)Nc2ccccc2C)CC1 (stereo not shown) [Compound A-216]
- EC50 ([1]; Homo sapiens): 5 to 16 µM
- IC50 [2]: < 5 µM

SMILES: CCOC(=O)NC1CCC(N/C(=N/C(=O)c2cn(C)nc2C(F)(F)F)Nc2cc(F)cc(F)c2)CC1 (stereo not shown) [Compound A-217]
- EC50 ([1]; Homo sapiens): > 16 µM
- IC50 [2]: > 16 µM

SMILES: CCOC(=O)NC1CCC(N/C(=N/C(=O)c2cn(C)nc2C(F)(F)F)NCc2ccc(Cl)c(F)c2)CC1 (stereo not shown) [Compound A-218]
- EC50 ([1]; Homo sapiens): 5 to 16 µM
- IC50 [2]: > 16 µM

SMILES: CCOC(=O)NC1CCC(N/C(=N/C(=O)c2cn(C)nc2C(F)(F)F)Nc2cc(F)cc(Cl)c2)CC1 (stereo not shown) [Compound A-219]
- EC50 ([1]; Homo sapiens): 5 to 16 µM
- IC50 [2]: 5 to 16 µM

SMILES: Cc1cc(C(=O)/N=C(/Nc2cc(F)cc(Cl)c2)Nc2cc(C(F)(F)F)nn2C(C)C)on1 [Compound A-225]
- EC50 ([1]; Homo sapiens): < 5 µM
- IC50 [2]: < 5 µM

SMILES: Cc1cc(C(=O)/N=C(/Nc2cc(F)cc(Cl)c2)Nc2c(C)c(C(F)(F)F)nn2CCO)on1 [Compound A-226]
- EC50 ([1]; Homo sapiens): 5 to 16 µM
- IC50 [2]: < 5 µM

SMILES: Cc1cc(C(=O)/N=C(/Nc2cc(F)cc(Cl)c2)Nc2cc(C(F)(F)F)nn2C)on1 [Compound A-228]
- EC50 ([1]; Homo sapiens): < 5 µM
- IC50 [2]: < 5 µM

SMILES: Cc1cc(C(=O)/N=C(\Nc2ccc(C(F)(F)F)nc2)Nc2cccc(Cl)c2)n(C)n1 [Compound A-230]
- EC50 ([1]; Homo sapiens): < 5 µM
- IC50 [2]: < 5 µM

SMILES: Cc1cc(C(=O)/N=C(\Nc2ccc(C(F)(F)F)nc2)Nc2cc(F)cc(Cl)c2)on1 [Compound A-231]
- EC50 ([1]; Homo sapiens): < 5 µM
- IC50 [2]: < 5 µM

SMILES: Cc1cc(C(=O)/N=C(\Nc2ccc(C(F)(F)F)nc2)Nc2cccc(Cl)c2)on1 [Compound A-232]
- EC50 ([1]; Homo sapiens): < 5 µM
- IC50 [2]: < 5 µM

SMILES: Cc1cc(C(=O)/N=C(\Nc2ccc(C(F)(F)F)nc2)Nc2cccc(C(F)(F)F)c2)on1 [Compound A-233]
- EC50 ([1]; Homo sapiens): < 5 µM
- IC50 [2]: < 5 µM

SMILES: Cn1cc(C(=O)/N=C(/Nc2cc(F)cc(Cl)c2)Nc2cccc(O)n2)c(C(F)(F)F)n1 [Compound A-234]
- EC50 ([1]; Homo sapiens): < 5 µM
- IC50 [2]: < 5 µM

SMILES: Cn1nc(C(C)(C)C)cc1C(=O)N/C(=N/c1cccc(O)n1)Nc1cc(F)cc(Cl)c1 [Compound A-235]
- EC50 ([1]; Homo sapiens): < 5 µM
- IC50 [2]: < 5 µM
